Reference: patent US9802899B2, “Heterocyclic compounds as pesticides” (BAYER CROPSCIENCE AG, priority 2012, dated 2017)

experiment: Determination of the log P values by HPLC (formic acid method); type: physicochemical; conditions: reversed-phase column (C 18), acidic range (pH 3.4), 55° C.
Protocol: 1) Description of Method for Determination of the Log P Values (Formic Acid Method)
Eluents for determination in the acidic range (pH 3.4):
Eluent A: acetonitrile+1 ml of formic acid/liter. Eluent B: water+0.9 ml of formic acid/liter.
The lambda max values were determined in the maxima of the chromatographic signals using the UV spectra from 200 nm to 400 nm.

SMILES	log P
Cn1nc(C(F)(F)F)c(C(=O)Nc2ccn(-c3c(F)cccc3F)n2)c1C(F)(F)F [Compound I-1-238]	2.99
Cn1ccc([N+](=O)[O-])c1C(=O)Nc1ccn(-c2c(F)cccc2F)n1 [Compound I-1-239]	2.50
Cn1cc(C(=O)Nc2ccn(-c3c(F)cccc3F)n2)c(C(F)(F)F)c1 [Compound I-1-240]	2.52
Cn1cc([N+](=O)[O-])c(C(=O)Nc2ccn(-c3c(F)cccc3F)n2)n1 [Compound I-1-241]	1.90
Cn1cnc(C(=O)Nc2ccn(-c3c(F)cccc3F)n2)c1[N+](=O)[O-] [Compound I-1-242]	1.81
O=C(Nc1ccn(-c2c(F)cccc2F)n1)c1ccc[n+]([O-])c1C(F)(F)F [Compound I-1-243]	1.80
CCC(C)n1ncc(Cl)c1C(=O)Nc1ccn(-c2c(F)cccc2F)n1 (centres unmarked) [Compound I-1-244]	3.58
CCC(C)n1ncc(I)c1C(=O)Nc1ccn(-c2c(F)cccc2F)n1 (centres unmarked) [Compound I-1-245]	3.47
O=C(Nc1ccn(-c2c(F)cccc2F)n1)c1cccnc1CC(F)(F)F [Compound I-1-246]	2.35
O=C(Nc1ccn(-c2c(F)cccc2F)n1)c1ccccc1OC(F)F [Compound I-1-247]	2.74
CSc1ncccc1C(=O)Nc1ccn(-c2c(F)cccc2F)n1 [Compound I-1-249]	2.38
O=C(Nc1ccn(-c2c(F)cccc2F)n1)c1cccnc1OC(F)(F)F [Compound I-1-250]	2.77
O=C(Nc1nn(-c2c(F)cccc2F)cc1Cl)c1ccccc1C(F)(F)F [Compound I-1-251]	2.73
O=C(Nc1nn(-c2c(F)cccc2F)cc1Br)c1ccccc1C(F)(F)F [Compound I-1-252]	2.77
CN(C(=O)c1ccccc1C(F)(F)F)c1ccn(-c2c(F)cccc2F)n1 [Compound I-1-253]	3.08
CCN(C(=O)c1ccccc1C(F)(F)F)c1ccn(-c2c(F)cccc2F)n1 [Compound I-1-254]	3.31
C=CCN(C(=O)c1ccccc1C(F)(F)F)c1ccn(-c2c(F)cccc2F)n1 [Compound I-1-255]	3.44
O=C(Nc1nn(-c2c(F)cccc2F)cc1I)c1ccccc1C(F)(F)F [Compound I-1-257]	2.86
CC(C)N(C(=O)c1ccccc1C(F)(F)F)c1ccn(-c2c(F)cccc2F)n1 [Compound I-1-260]	3.50
CCCN(C(=O)c1ccccc1C(F)(F)F)c1ccn(-c2c(F)cccc2F)n1 [Compound I-1-261]	3.64
O=C(c1ccccc1C(F)(F)F)N(CC(F)F)c1ccn(-c2c(F)cccc2F)n1 [Compound I-1-264]	3.38
O=C(c1ccccc1C(F)(F)F)N(CC(F)(F)F)c1ccn(-c2c(F)cccc2F)n1 [Compound I-1-265]	3.59
O=C(Nc1ccn(-c2c(F)cccc2F)n1)c1cccc(Cl)c1Cl [Compound I-1-266]	2.93
O=C(Nc1ccn(-c2c(F)cccc2F)n1)c1c(Cl)cccc1Cl [Compound I-1-267]	2.72
Cc1cccc(C)c1C(=O)Nc1ccn(-c2c(F)cccc2F)n1 [Compound I-1-268]	2.68
CC(=O)Nc1ccccc1C(=O)Nc1ccn(-c2c(F)cccc2F)n1 [Compound I-1-269]	2.20
CC(=O)c1ccccc1C(=O)Nc1ccn(-c2c(F)cccc2F)n1 [Compound I-1-270]	2.38

SMILES	log P
COc1cccc(Cl)c1C(=O)Nc1ccn(-c2c(F)cccc2F)n1 [Compound I-1-271]	2.47
N#Cc1ccccc1C(=O)Nc1ccn(-c2c(F)cccc2F)n1 [Compound I-1-272]	2.48
O=C(Nc1ccn(-c2c(F)cccc2F)n1)c1ccccc1C1CC1 [Compound I-1-273]	2.89
CCc1cccc(F)c1C(=O)Nc1ccn(-c2c(F)cccc2F)n1 [Compound I-1-274]	2.85
CCc1ncccc1C(=O)Nc1ccn(-c2c(F)cccc2F)n1 [Compound I-1-275]	1.47
O=C(Nc1ccn(-c2c(F)cccc2F)n1)c1c(F)cccc1C(F)(F)F [Compound I-1-276]	2.72
O=C(Nc1ccn(-c2c(F)cccc2F)n1)c1c(F)cccc1I [Compound I-1-277]	2.74
O=C(Nc1ccn(-c2c(F)cccc2F)n1)c1ccccc1F [Compound I-1-278]	2.60
O=C(Nc1ccn(-c2c(F)cccc2F)n1)c1cccnc1F [Compound I-1-279]	2.00
Cc1occc1C(=O)Nc1ccn(-c2c(F)cccc2F)n1 [Compound I-1-281]	2.43
O=C(Nc1ccn(-c2c(F)cccc2F)n1)c1sccc1C(F)F [Compound I-1-282]	2.80
Cn1nc(C(F)F)c(C(=O)Nc2ccn(-c3c(F)cccc3F)n2)c1F [Compound I-1-283]	2.27
CCc1nccnc1C(=O)Nc1ccn(-c2c(F)cccc2F)n1 [Compound I-1-285]	2.65
O=C(Nc1ccn(-c2ncc(F)cc2Cl)n1)c1c(F)cccc1F [Compound I-1-286]	2.33
O=C(Nc1ccn(-c2c(F)cccc2F)n1)c1cccc(F)c1C(F)(F)F [Compound I-1-287]	2.76
O=C(Nc1ccn(-c2c(F)cccc2F)n1)c1occc1I [Compound I-1-288]	2.64
CC(C)Cc1nn(C)c(C(=O)Nc2ccn(-c3c(F)cccc3F)n2)c1[N+](=O)[O-] [Compound I-1-289]	3.19
CC(C)c1nn(C)c(C(=O)Nc2ccn(-c3c(F)cccc3F)n2)c1[N+](=O)[O-] [Compound I-1-290]	2.93
Cc1noc(C(F)(F)F)c1C(=O)Nc1ccn(-c2c(F)cccc2F)n1 [Compound I-1-291]	2.80
Cn1nc(C(C)(C)C)c([N+](=O)[O-])c1C(=O)Nc1ccn(-c2c(F)cccc2F)n1 [Compound I-1-292]	3.33
Cn1nc(C(C)(C)C)c(Cl)c1C(=O)Nc1ccn(-c2c(F)cccc2F)n1 [Compound I-1-293]	4.15
Cc1nn(C)c(C(=O)Nc2ccn(-c3c(F)cccc3F)n2)c1C(F)F [Compound I-1-294]	2.34
O=C(Nc1ccn(-c2c(F)cccc2F)n1)c1cncnc1C(F)(F)F [Compound I-1-295]	2.25
O=C(Nc1ccn(-c2c(F)cccc2F)n1)c1c(C(F)(F)F)cc(F)c(F)c1F [Compound I-1-296]	3.14
Cc1onc(C(=O)Nc2ccn(-c3c(F)cccc3F)n2)c1C [Compound I-1-297]	2.76
Cc1nn(C)c(C(=O)Nc2ccn(-c3c(F)cccc3F)n2)c1Br [Compound I-1-298]	2.76
CCn1ncc(Br)c1C(=O)Nc1ccn(-c2c(F)cccc2F)n1 [Compound I-1-299]	2.84

SMILES	log P
CCn1nc(C)c(Br)c1C(=O)Nc1ccn(-c2c(F)cccc2F)n1 [Compound I-1-300]	3.15
Cn1cc(Br)c(C(=O)Nc2ccn(-c3c(F)cccc3F)n2)n1 [Compound I-1-301]	2.37
Cn1ncc(Br)c1C(=O)Nc1ccn(-c2c(F)cccc2F)n1 [Compound I-1-302]	2.50
Cn1nc(C(F)(F)F)c(Br)c1C(=O)Nc1ccn(-c2c(F)cccc2F)n1 [Compound I-1-303]	3.37
Cc1oc(C)c(C(=O)Nc2ccn(-c3c(F)cccc3F)n2)c1Br [Compound I-1-304]	3.38
O=C(Nc1ccn(-c2c(F)cccc2F)n1)c1cscc1Br [Compound I-1-305]	2.61
Cc1nn(C(F)F)c(C(=O)Nc2ccn(-c3c(F)cccc3F)n2)c1Cl [Compound I-1-306]	3.11
Cc1nn(C)c(C(=O)Nc2ccn(-c3c(F)cccc3F)n2)c1Cl [Compound I-1-307]	2.78
CCn1ncc(Cl)c1C(=O)Nc1ccn(-c2c(F)cccc2F)n1 [Compound I-1-308]	2.61
CCn1nc(C)c(Cl)c1C(=O)Nc1ccn(-c2c(F)cccc2F)n1 [Compound I-1-309]	3.15
CC(C)n1nc([N+](=O)[O-])c(Cl)c1C(=O)Nc1ccn(-c2c(F)cccc2F)n1 [Compound I-1-310]	3.28
Cn1ncc(Cl)c1C(=O)Nc1ccn(-c2c(F)cccc2F)n1 [Compound I-1-311]	2.46
Cn1nc([N+](=O)[O-])c(Cl)c1C(=O)Nc1ccn(-c2c(F)cccc2F)n1 [Compound I-1-312]	2.70
CCCc1nn(C)c(C(=O)Nc2ccn(-c3c(F)cccc3F)n2)c1Cl [Compound I-1-313]	3.68
CCCc1c(Cl)c(C(=O)Nc2ccn(-c3c(F)cccc3F)n2)nn1C [Compound I-1-314]	3.32
CCCn1cc(Cl)c(C(=O)Nc2ccn(-c3c(F)cccc3F)n2)n1 [Compound I-1-315]	3.05
CCc1nn(C)c(C(=O)Nc2ccn(-c3c(F)cccc3F)n2)c1Cl [Compound I-1-316]	3.24
Cn1nc(C(F)(F)C(F)(F)F)c(C#N)c1C(=O)Nc1ccn(-c2c(F)cccc2F)n1 [Compound I-1-317]	3.37
Cn1nc(C(F)(F)F)c(C#N)c1C(=O)Nc1ccn(-c2c(F)cccc2F)n1 [Compound I-1-318]	2.98
O=C(Nc1ccn(-c2c(F)cccc2F)n1)c1snnc1C1CC1 [Compound I-1-319]	2.68
Cc1nn(C)c(C(=O)Nc2ccn(-c3c(F)cccc3F)n2)c1F [Compound I-1-320]	2.20
Cn1ncc(F)c1C(=O)Nc1ccn(-c2c(F)cccc2F)n1 [Compound I-1-321]	2.27
O=C(Nc1ccn(-c2c(F)cccc2F)n1)c1ccc(F)cc1C(F)(F)F [Compound I-1-322]	2.80
CC(C)Cn1ncc(I)c1C(=O)Nc1ccn(-c2c(F)cccc2F)n1 [Compound I-1-323]	3.47
Cn1ncc(I)c1C(=O)Nc1ccn(-c2c(F)cccc2F)n1 [Compound I-1-324]	2.46
CCCn1ncc(I)c1C(=O)Nc1ccn(-c2c(F)cccc2F)n1 [Compound I-1-325]	3.11
